Source: patent US20140262287A1, “ENVIRONMENTALLY FRIENDLY QUATERNARY SALTS OF AMINES AND THEIR USE AS TEMPORARY AND/OR PERMANENT CLAY STABILIZERS AND METHODS FOR MAKING AND USING SAME” (CLEARWATER INTERNATIONAL, LLC, priority 2013, published 2014)

Legend:
[1] = Clay stabilization test (water separation from 1% clay solution); conditions: dosage 0.5 (wt. %/100 mL); 60 minutes; 100 mL of 1% clay solution; (Top)/(Middle) printed in cell
Method: (§1) Clay Solution Preparation
To make 100 mL of a clay solution, measure 1 g of Cream Bentonite Clay or Weatherford Bentonite Clay material. Add 99 g of distilled water and shake bottle until all the clay is dissolved.
Measure 100 ml of clay solution in a graduated cylinder. Shake 10 times. Record separation time and clay precipitation.
Measure 100 mL of clay solution in a graduated cylinder and add 0.5 mL of the desired clay stabilizer. Shake 10 times. Record separation time and clay coagulation. Record clay deposition, swelling and water release.

[2] = Linear Swell after 23 hours; 6000 ppm; Bentonite pellet
Method: The Linear Swell Meter was OFITE 115V Dynamic Linear Swell Meter Model #150-80. 14 g of Bentonite was added to a pelletizercompactor and 10,000 psi pressure was applied for 30 minutes. The pellet was removed from the compactor. Ensure all components of the Linear Swell Meter are clean: transfer stand, cap for wafer tube, bottom plate, magnetic stir bar, Teflon washer, and cup. With both the screens in the linear swell meter cell, the swell meter was zeroed out by clicking on the specific cell(s) to be zeroed out and clicked “apply”. One of the screens from the cell was removed and the pellet was added on top of the other screen. The other screen was put on top of the pellet. The transfer stand was gently placed on top of the pellet. The cell was placed on the magnetic stir plate underneath the linear variable differential transformer (LVDT) to make sure that the spindle was directly centered on top of the transfer stand. The fluid to be tested was poured through the hole on the cap for the wafer tube, the box was checked to start the cell and “apply” was clicked. Doing this will start the test for the specific cell.

[3] = test system: Fathead Minnow (pimephales promelas); experiment: Acute toxicity minnow survival test; type: in vivo; conditions: for LC50: acute toxicity survival, Examples 4 and 5 range-finding and definitive test, TMAC and Example 3 range-finding test only; for toxicity to minnows compared with TMAC / prior art: comparison in words, data of Table II
Method: As a consequence, the “definitive” test gave a more precise LC50 value. LC50 was determined using a log-normal transformation coupled with linear regression between the bracketing no observed effect concentration (NOEC) and lowest observed effect concentration (LOEC). Both the range finding and definitive tests were run on Example 4 and Example 5. Only the ranging finding test was run for TMAC and Example 3.

[4] = Capillary suction timer clay stabilization test; conditions: 2 g Bentonite in 100 g solution
Method: A rock sample was placed in a Gyral Grinder and grinding of the rock sample was begun. The rock sample was ground for 1 hour using a timer. The ground rock sample was placed into a 200-mesh sieve. The aggregate that passed through the sieve was placed in a pan for testing and placed to the side.
Using a 100 mL volumetric flask, a solution was prepared that will be used to mix with the rock sample. At least one solution should be prepared as the sample with straight tap water will be used as a reference blank. 100 g of solution was added to a 250 mL beaker equipped with a magnetic stir bar. A specified amount of each shale inhibitor was added to the beaker. The beaker was placed on stir plate and stirring was begun at a speed at which a vortex reaches the bottom of the beaker. 2 g of the untreated Bentonite sample was added and a timer was set for 5 minutes. After 5 minutes, the stir plate was turned off, the solution was poured into a 100 mL graduated cylinder, and a timer was set for 15 minutes. After 15 minutes, the mixture was poured back into the beaker, the beaker was placed on the magnetic stir plate and stirring was restarted on the plate. Wait until the vortex returned and the clay had become dispersed.
A Venture Innovations capillary suction timer (CST) from Venture Chemicals, Inc. in Lafayette, La. was used in the tests. Before each test, the test head, filter paper, and stainless steel funnel were cleaned and dried. Make sure the cable from the test head was plugged into the control box and the reading on the control box display was reset to zero. A piece of 7×9 cm CST filter paper from Venture Innovations Inc. (part no. IFP-9053) was placed on the test head with the stainless steel probes facing down. The stainless steel funnel was fitted into the test head.
Using a 5-mL syringe, 5-mL of sample was withdrawn from the vortex. Consecutive samples were removed from the same position in the vortex, where the previous sample was taken. A 5 mL sample was charged into the stainless steel funnel. The 5 mL sample charge was repeated twice more. Instrument started automatically when a beep sounds from the control box. When this beep sounded, the timer started. […]

[5] = Water release clay stabilization test; set-up: unit not given here; conditions: 100 mL of 1 wt. % Wyoming Bentonite clay solution
Method: as §1
To make 1 wt. % clay solution, 23 g of Wyoming Bentonite Clay and 2277 g of distilled water were added to a bottle and shaken until all the clay was dissolved. […]
Measure 100 mL of clay solution into 6 graduated cylinders. […] The addition of the clay stabilizers at 0.1 mL, 0.2 mL, 0.4 mL, 0.6 mL, 0.8 mL, and 1.0 mL in 100 mL of a clay solution corresponds to 1, 2, 4, 6, 8 and 10 Gallons per Thousand (or gpt). Invert the cylinders 20 times. Start timer and record separation time and clay coagulation. Record clay deposition, swelling and water release.

Compound	Final Water (mL) [1]	% Swell [2] [%]	LC50 [3] [µg/mL]	CST Time ([4]; CST concentration 4000 ppm) [s]	CST Time ([4]; CST concentration 5000 ppm) [s]	CST Time ([4]; CST concentration 6000 ppm) [s]	WR (water release at 60 minutes) 2.0 gpt [5]	WR (water release at 60 minutes) 4.0 gpt [5]	WR (water release at 60 minutes) 6.0 gpt [5]	WR (water release at 60 minutes) 8.0 gpt [5]	WR (water release at 60 minutes) 10.0 gpt [5]	toxicity to minnows compared with TMAC / prior art [3]
C[N+](C)(C)CCO.[Cl-] [Choline Chloride, reference compound]	27 mL/60 minutes (Top)	88.9	–	–	–	–	–	–	–	–	–	–
C[N+](C)(C)C.[Cl-] [tetramethylammonium chloride, reference compound]	–	–	737	–	–	–	–	–	–	–	–	–
CCOS(=O)(=O)[O-].CC[N+](CCO)(CCO)CCO [Example 5]	20 mL/60 minutes (Middle)	–	6030	90	68	92	2	9	22	26	31	much less toxic than TMAC
OCC[N+](CCO)(CCO)Cc1ccccc1.[Cl-] [Example 4]	–	–	3160	18	–	–	27	33	34	33	32	much less toxic than TMAC
